Data on one compound can be found in patent publication US9592223B2, “Small molecule inhibitors of MALT1” (Cornell University, priority 2012, dated 2017).

“Also recorded” adds a separate entry of the source. Where two headings read alike, the source gives them in different places.

The test system of assay [1] is primary human non-GCB DLBCL cells. The assay can be described thus: Primary human DLBCL cells ex vivo, non-GCB cases, Trypan blue. The class given is cell-based. Particulars: 0.8 μM, 48 hr. The procedure:
After 48 hr exposure, cell number and viability were determined using Trypan blue.
Patient de-identified tissues were obtained in accordance with the guidelines and approval of the Weill Cornell Medical College Review Board. Patient samples were processed as previously described (Cerchietti et al., 2010). Briefly, single cell suspensions from lymph node biopsies were obtained by physical disruption of tissues followed by cell density gradient separation (Fico/Lite LymphoH, Atlanta Biologicals, Lawrenceville, Ga.). Cell number and viability were determined by Trypan blue exclusion. Primary DLBCL cells were cultured in 96-well plates. Cells were grown in advanced RPMI medium with 20% FBS supplemented with antibiotics for 48 hours. […] After 48 hr of exposure, viability was determined by using Trypan blue (Sigma). All samples were normalized to their own replicate control. Statistical significance was calculated using paired T-test.

In another assay the test system is OCI-Ly1 cells. The assay is described as follows: Trypan blue exclusion and Annexin V+ DAPI- apoptosis over 14 days, control line. The class given is cell-based, human. The conditions noted are these: treated daily at the higher doses used for TMD8, 14 days. On the procedure: (§1) Cell proliferation was examined using the CFSE dilution assay by flow cytometry on viable cells at 48, 72 and 96 h. […] Trypan blue exclusion and apoptosis assessed by Annexin V^+ DAPI^− flow cytometry was measured every 48 hr for a period of 14 days.
Apoptosis was assessed by AnnexinV-APC/DAPI (BD Pharmingen) staining followed by flow cytometry.

In assay [2] the test system is MALT1-mediated cleavage of CYLD. The assay can be described thus: MALT1-mediated cleavage of CYLD in HBL-1 cells, Western blotting and densitometry. Format: cell-based, human. The procedure:
A total of 704 analog compounds from available libraries with similarity score ≧70% (Tanimoto similarity functions) were screened by LZ-MALT1 fluorescence assay.
Equal amounts of total protein (20-75 μg) were separated on sodium dodecyl sulfate-polyacrylamide gel electrophoresis (SDS-PAGE), and electrotransferred onto nitrocellulose membranes. Membranes were incubated with primary antibodies (MALT1, BCL-10, CYLD from Santa Cruz Biotechnologies, Santa Cruz, Calif.; A20 from eBioscience, San Diego, Calif.; phospho-IκB-α, IκB-α, c-REL, RELB from Cell Signaling, Danvers, Mass. and α-Tubulin from Sigma), followed by secondary antibodies conjugated to horseradish peroxidase, which were detected by chemiluminescence (Pierce, Thermo Scientific, Rockford, Ill.).
(A western blot detects proteins with antibodies after separation by electrophoresis.)

Assay [3] deals with MALT1^C464A (inactive mutant) NF-κB activation. The assay is described as follows: NF-κB reporter assay in 293T cells, PMA/ionomycin, BCL10 and MALT1 C464A. The class given is cell-based. Particulars: pre-treatment. From the text: Antigen receptor-mediated NF-κB signaling partly depends on MALT1 activity (Ruefli-Brasse et al., 2003; Ruland et al., 2003). […] First, 293T cells were transfected with the NF-κB reporter vector (NF-κB)5-luc2CP-pGL4 (harboring 5 copies of the NF-κB consensus response element and a destabilized Firefly luciferase) and TK-pRL control together with plasmids expressing BCL10 and either MALT1^WT or MALT1^C464A. […] HBL-1 was transfected with the reporter construct (NF-κB)5-luc2CP-pGL4 and TK-pRL control.
Reporter assays were performed in 293T cells seeded at a density of 2×10^5 cells per well of a 12-well dish. 100 ng of (NF-κB)5-Luc2CP-pGL4 and 10 ng of TK-Renilla internal control plasmid were cotransfected along with 25 ng of the indicated plasmids (MIGR1-MALT1^WT or MIGR1-MALT1^C464A and pcDNA4-Flag-Bcl10) using Lipofectamine 2000 (Invitrogen). Lysates were submitted to dual luciferase assays following manufacturer's protocol (Promega). In HBL-1, 5 μg of (NF-κB)5-Luc2CP-pGL4 and 50 ng of TK-Renilla internal control plasmid per 5×10^6 cells were cotransfected using nucleofection (Amaxa, Lonza, Basel, Switzerland). Forty-eight hours after transfection, cells were plated at a density of 5×10^4 cells per well of a 24-well plate and treated as indicated. Lysates were submitted to dual luciferase assays following manufacturer's protocol (Promega).
In general terms: Reporter assays use an easily measured gene product as a stand-in for the process of interest.

The test system of the next assay is TMD8 cells. The assay can be described thus: Growth inhibition, ATP-based luminescent assay. The class given is cell-based. Particulars: Homo sapiens. The procedure: Cell proliferation was determined by ATP quantification using a luminescent method (CellTiter-Glo, Promega, Madison, Wis.) and Trypan blue dye-exclusion (Sigma, St. Louis, Mo.). Cell viability in drug-treated cells was normalized to their respective controls (fractional viability) and results are given as 1-fractional viability. CompuSyn software (Biosoft, Cambridge, UK) was used to determine drug concentrations inhibiting fractional growth compared to controls.
DLBCL cell lines were grown in exponential growth conditions during the 48 hr of treatment. Cell proliferation was determined by ATP quantification using a luminescent method (CellTiter-Glo, Promega, Madison, Wis.) and Trypan blue dye-exclusion (Sigma, St. Louis, Mo.). Luminescence was measured using the Synergy4 microplate reader (BioTek Instruments, Winooski, Vt.). Standard curves for each cell line were calculated by plotting the cell number (determined by the Trypan blue method) against their luminescence values and number of cells was calculated accordingly. Cell viability in drug-treated cells was normalized to their respective controls (fractional viability) and results are given as 1-fractional viability. […] Experiments were performed in triplicate.

Assay [4] deals with MALT1 dependent ABC-DLBCL cells HBL-1, TMD8, OCI-Ly3 and OCI-Ly10. The assay can be described thus: Growth inhibition, MALT1 dependent cell lines. The conditions noted are these: increasing concentrations, single dose, 48 hr. The class given is cell-based, human. On the procedure:
(§2) Endogenous MALT1 activity was evaluated by Western blotting for A20, BCL10 and CYLD; and NF-κB activation, by phospho-IκB-α and total IκB-α. Dependence on MALT1 proteolytic activity for proliferation was tested by 50[…]μM Z-VRPR-FMK treatment for 48 hr. […] The U2932 and HLY1 ABC-DLBCL cell lines harbor mutations in TAK1 and A20, which activate NF-κB signaling downstream of MALT1.
(§3) Cell proliferation was determined by ATP quantification using a luminescent method (CellTiter-Glo, Promega, Madison, Wis.) and Trypan blue dye-exclusion (Sigma, St. Louis, Mo.). Cell viability in drug-treated cells was normalized to their respective controls (fractional viability) and results are given as 1-fractional viability. […]
(§4) DLBCL cell lines were grown in exponential growth conditions during the 48 hr of treatment. Cell proliferation was determined by ATP quantification using a luminescent method (CellTiter-Glo, Promega, Madison, Wis.) and Trypan blue dye-exclusion (Sigma, St. Louis, Mo.). Luminescence was measured using the Synergy4 microplate reader (BioTek Instruments, Winooski, Vt.). Standard curves for each cell line were calculated by plotting the cell number (determined by the Trypan blue method) against their luminescence values and number of cells was calculated accordingly. […]

In a further assay the test system is cell cycle. The assay can be described thus: BrdU incorporation - DAPI staining cell cycle flow cytometry. Particulars: increasing concentrations. Format: cell-based. The procedure:
as §1
To determine cell-cycle distribution, cells were analyzed by flow cytometry using pulse-BrdU (bromodeoxyuridine) incorporation with the APC BrdU Flow Kit (BD Pharmingen, San Jose, Calif.).
(In general: Uptake of a labelled nucleoside into DNA is a usual measure of proliferation.)

The subject of assay [5] is GCB-DLBCL cell lines OCI-Ly7 and OCI-Ly1. The assay is described as follows: Growth inhibition, GCB-DLBCL cell lines. The class given is cell-based, human. Particulars: increasing concentrations, single dose, 48 hr. On the procedure:
as §2, §3, §4

For the compound `COCCOc1nc(-c2ccc(Cl)c(Cl)c2)n(-c2ccc(NC(=O)CCl)cc2)n1` [MI-2], the “response of cell number and viability” value in assay [1] is on record as “two of the non-GCB cases responded; also recorded: One of the non-GCB did not respond”. Moreover, the viability and apoptosis result in the assay on OCI-Ly1 cells was “no effect”. The “MALT1-mediated cleavage of CYLD” value in assay [2] (HBL-1, increasing concentrations, 24 hr) is given as “dose-dependent decrease in MALT1-mediated cleavage”. Also, the “inhibition of MALT1 cleavage of CYLD” value in assay [2] (analogs 5 μM for 8 hr, Z-VRPR-FMK 50 μM as positive control) is on record as “most potent compound”. In addition, in assay [3], the “NF-κB induction by PMA/ionomycin stimulation” value was “did not significantly affect”. The GI50 with TMD8 cells (TMD8, read-out: GI50 concentration) was 500 nM; with TMD8 cells (TMD8, single dose, 48 hr, read-out: GI50), 500 nM. The growth inhibition entry in assay [4] was “selective for MALT1 dependent cell lines”; in assay [5] it was “resistant”. Besides, the cell cycle distribution result with cell cycle is recorded as “dose-dependent decrease in S phase”.
